In US20250179061A1 (SIRONAX LTD., priority 2022, published 2025) one finds IC50 data, which are given here for 28 compounds.

Molecules are shown by their SMILES. Read-outs that look alike come from different tables or passages of the source. A value given as a limit tells only on which side of the number the result lay.

This assay concerns HT-29 cells. Nature of the assay: HT-29 necroptosis cell viability assay (TNF-α/SMAC mimetic/zVAD-FMK, CellTiter-Glo). To be noted: Homo sapiens. It is filed as cell-based. Summed up:
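Necroptosis was triggered by TNF-α (10 ng/ml), SMAC mimetic (6 μM) and zVAD-FMK (10 μM) in serum-free medium during 20 h compound exposure (10 concentrations, threefold steps) of HT-29 cells. IC50 from duplicate dose-responses uses CellTiter-Glo ATP luminescence as viability read-out.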
(In general: Cellular ATP, detected with luciferase, serves as a proxy for viable cell number.)

[1] abbreviates: HT-29, HT-29 necroptosis cell viability, IC50 class symbols, read-out: Activity.
Where [2] appears, read: HT-29, HT-29 necroptosis cell viability assay, class symbols for IC50, read-out: Activity.
The mark [3] stands for this setting: HT-29 cells stimulated with TNF-α (10 ng/ml), SMAC mimetic (6 μM) and zVAD-FMK (10 μM), 20 hours, CellTiter-Glo ATP luminescence, geometric mean IC50 from 10 points, read-out: Activity.
Setting [4] is: HT-29, HT-29 cells, necroptosis induced by TNF-α/SMAC mimetic/zVAD-FMK, CellTiter-Glo, read-out: Activity (IC50 class).

Consider `O=c1n(Cc2c(F)cccc2F)cnn1-c1ccc(Oc2ccnc(NC3CCC3)c2)cc1` [Example 344, 2-(4-((2-(cyclobutylamino)pyridin-4-yl)oxy)phenyl)-4-(2,6-difluorobenzyl)-2,4-dihydro-3H-1,2,4-triazol-3-one], for which, under setting [1], the IC50 was 0.1 to 1 µM.

With `N#CC1(CNc2cc(Oc3ccc(-n4ncn(Cc5c(F)cccc5F)c4=O)cc3)ccn2)CC1` [Example 381, 1-(((4-(4-(4-(2,6-difluorobenzyl)-5-oxo-4,5-dihydro-1H-1,2,4-triazol-1-yl)phenoxy)pyridin-2-yl)amino)methyl)cyclopropane-1-carbonitrile], the IC50 under setting [1] is less than 0.1 µM. For the compound `CN(CC1CCCO1)c1nccc(Oc2ccc(-n3ncn(Cc4c(F)cccc4F)c3=O)cc2)c1F` (stereo not shown) [Example 487, 4-(2,6-difluorobenzyl)-2-(4-((3-fluoro-2-(methyl((tetrahydrofuran-2-yl)methyl)amino)pyridin-4-yl)oxy)phenyl)-2,4-dihydro-3H-1,2,4-triazol-3-one], the IC50 under setting [2] lay in the range of 0.1 to 1 µM. As to `O=c1n(Cc2c(F)cccc2F)cnn1-c1ccc(Oc2c(Cl)cccc2[N+](=O)[O-])cc1` [Example 434, 2-(4-(2-chloro-6-nitrophenoxy)phenyl)-4-(2,6-difluorobenzyl)-2,4-dihydro-3H-1,2,4-triazol-3-one], under setting [1], the IC50 was less than 0.1 µM. As for `CCOC1CN(c2cc(Oc3ccc(-n4ncn(Cc5c(F)cccc5F)c4=O)cc3Cl)c(F)cn2)C1` [Example 495, 2-(3-chloro-4-((2-(3-ethoxyazetidin-1-yl)-5-fluoropyridin-4-yl)oxy)phenyl)-4-(2,6-difluorobenzyl)-2,4-dihydro-3H-1,2,4-triazol-3-one], the IC50 under setting [2] was less than 0.1 µM. Still for that read-out and setting: under `CC1(Nc2cc(Oc3ccc(-n4ncn(Cc5c(F)cccc5F)c4=O)cc3)ccn2)COC1` [Example 531, 4-(2,6-difluorobenzyl)-2-(4-((2-((3-methyloxetan-3-yl)amino)pyridin-4-yl)oxy)phenyl)-2,4-dihydro-3H-1,2,4-triazol-3-one] stands greater than 10 µM.

For `Cc1nc(C2(F)CC(O)C2)sc1Oc1ccc(-n2ncn(Cc3c(F)cccc3F)c2=O)cc1F` (stereo not shown) [Example 110, 4-(2,6-difluorobenzyl)-2-(3-fluoro-4-((2-(1-fluoro-3-hydroxycyclobutyl)-4-methylthiazol-5-yl)oxy)phenyl)-2,4-dihydro-3H-1,2,4-triazol-3-one], the IC50 under setting [3] was less than 0.1 µM. As to `Cc1nc(C(C)(C)O)sc1Oc1ccc(-n2nc3n(c2=O)C(c2ccccc2)CC3)cc1F` (stereo not shown) [Example 463, 2-(3-fluoro-4-((2-(2-hydroxypropan-2-yl)-4-methylthiazol-5-yl)oxy)phenyl)-5-phenyl-2,5,6,7-tetrahydro-3H-pyrrolo[2,1-c][1,2,4]triazol-3-one], the IC50 under setting [1] was less than 0.1 µM. On to `CC(C)(C)CNC(=O)c1cc(Oc2ccc(-n3ncn(Cc4c(F)cccc4F)c3=O)cc2)ccn1` [Example 660, 4-(4-(4-(2,6-difluorobenzyl)-5-oxo-4,5-dihydro-1H-1,2,4-triazol-1-yl)phenoxy)-N-neopentylpicolinamide], for which the IC50 under setting [4] lay in the range of 0.1 to 1 µM. As for `Cc1nc(CC(=O)O)sc1Oc1ccc(-n2ncn(Cc3c(F)cccc3F)c2=O)cc1F` [Example 637, 2-[5-[4-[4-[(2,6-difluorophenyl)methyl]-5-oxo-1,2,4-triazol-1-yl]-2-fluoro-phenoxy]-4-methyl-thiazol-2-yl]acetic acid], under setting [4], the IC50 is less than 0.1 µM. Take `N#CC12CC(Nc3cc(Oc4ccc(-n5ncn(Cc6c(F)cccc6F)c5=O)cc4Cl)c(F)cn3)(C1)C2` [Example 272, 3-((4-(2-chloro-4-(4-(2,6-difluorobenzyl)-5-oxo-4,5-dihydro-1H-1,2,4-triazol-1-yl)phenoxy)-5-fluoropyridin-2-yl)amino)bicyclo[1.1.1]pentane-1-carbonitrile]: under setting [1], the IC50 is less than 0.1 µM. `Cc1nc(C2COC2)sc1Oc1ccc(-n2ncn(Cc3c(F)cccc3F)c2=O)cc1` [Example 42, 4-(2,6-difluorobenzyl)-2-(4-((4-methyl-2-(oxetan-3-yl)thiazol-5-yl)oxy)phenyl)-2,4-dihydro-3H-1,2,4-triazol-3-one]: the IC50 under setting [3] is less than 0.1 µM. As to `Cc1nc(C#N)sc1Oc1ccc(-n2ncn(Cc3ccccc3C#N)c2=O)cc1F` [Example 570, 5-(4-(4-(2-cyanobenzyl)-5-oxo-4,5-dihydro-1H-1,2,4-triazol-1-yl)-2-fluorophenoxy)-4-methylthiazole-2-carbonitrile], under setting [2], the IC50 is 0.1 to 1 µM. Take `Cc1nc(N2CC(N)(CO)C2)sc1Oc1ccc(-n2ncn(Cc3c(F)cccc3F)c2=O)cc1` [Example 71, 2-(4-((2-(3-amino-3-(hydroxymethyl)azetidin-1-yl)-4-methylthiazol-5-yl)oxy)phenyl)-4-(2,6-difluorobenzyl)-2,4-dihydro-3H-1,2,4-triazol-3-one]: the IC50 under setting [3] was less than 0.1 µM. As for `Cc1nc(N2CC([C@H](C)O)C2)sc1Oc1ccc(-n2ncn(Cc3c(F)cccc3F)c2=O)cc1` [Example 52, (S)-4-(2,6-difluorobenzyl)-2-(4-((2-(3-(1-hydroxyethyl)azetidin-1-yl)-4-methylthiazol-5-yl)oxy)phenyl)-2,4-dihydro-3H-1,2,4-triazol-3-one], the IC50 under setting [3] is less than 0.1 µM. As to `Cc1cc(Oc2ccc(-n3ncn(Cc4c(F)cccc4F)c3=O)cc2F)n(C)n1` [Example 172, 4-(2,6-difluorobenzyl)-2-(4-((1,3-dimethyl-1H-pyrazol-5-yl)oxy)-3-fluorophenyl)-2,4-dihydro-3H-1,2,4-triazol-3-one], the IC50 under setting [2] was less than 0.1 µM.

Take `Cc1cc(C)n(Cc2ccc(-n3ncn(Cc4c(F)cccc4F)c3=O)cc2)c1` [Example 188, 4-(2,6-difluorobenzyl)-2-(4-((2,4-dimethyl-1H-pyrrol-1-yl)methyl)phenyl)-2,4-dihydro-3H-1,2,4-triazol-3-one]: the IC50 under setting [2] was 0.1 to 1 µM. As to `CC1(C#N)CN(c2nccc(Oc3ccc(-n4ncn(Cc5c(F)cccc5F)c4=O)cc3F)c2F)C1` [Example 226, 1-(4-(4-(4-(2,6-difluorobenzyl)-5-oxo-4,5-dihydro-1H-1,2,4-triazol-1-yl)-2-fluorophenoxy)-3-fluoropyridin-2-yl)-3-methylazetidine-3-carbonitrile], the IC50 under setting [1] is less than 0.1 µM. Regarding `CCOC(=O)c1nc(Oc2ccc(-n3ncn(Cc4c(F)cccc4F)c3=O)cc2F)n(C)c1C` [Example 181, ethyl 2-(4-(4-(2,6-difluorobenzyl)-5-oxo-4,5-dihydro-1H-1,2,4-triazol-1-yl)-2-fluorophenoxy)-1,5-dimethyl-1H-imidazole-4-carboxylate], the IC50 under setting [2] was in the range of 0.1 to 1 µM. Turning to `O=c1n(Cc2c(F)cccc2F)cnn1-c1ccc(Oc2ccnc(N3CC4(CCCO4)C3)c2)cc1` [Example 331, 2-(4-((2-(5-oxa-2-azaspiro[3.4]octan-2-yl)pyridin-4-yl)oxy)phenyl)-4-(2,6-difluorobenzyl)-2,4-dihydro-3H-1,2,4-triazol-3-one], the IC50 under setting [1] was less than 0.1 µM.

In the case of `Cc1nc(C(N)=O)sc1Oc1ccc(-n2nc3n(c2=O)C(c2ccccc2)CC3F)cc1F` (stereo not shown) [Example 81, 5-(2-fluoro-4-(7-fluoro-3-oxo-5-phenyl-3,5,6,7-tetrahydro-2H-pyrrolo[2,1-c][1,2,4]triazol-2-yl)phenoxy)-4-methylthiazole-2-carboxamide], the IC50 under setting [3] is less than 0.1 µM.

Take `CCNC1CN(c2cc(Oc3ccc(-n4ncn(Cc5c(F)cccc5F)c4=O)cc3)ccn2)C1` [Example 318, 4-(2,6-difluorobenzyl)-2-(4-((2-(3-(ethylamino)azetidin-1-yl)pyridin-4-yl)oxy)phenyl)-2,4-dihydro-3H-1,2,4-triazol-3-one]: the IC50 under setting [1] is 0.1 to 1 µM. Take `CNC(=O)c1nc(C)c(Oc2ccc(-n3ncn(Cc4c(F)cccc4F)c3=O)cc2F)s1` [Example 609, 5-(4-(4-(2,6-difluorobenzyl)-5-oxo-4,5-dihydro-1H-1,2,4-triazol-1-yl)-2-fluorophenoxy)-N,4-dimethylthiazole-2-carboxamide]: under setting [2], the IC50 was less than 0.1 µM. On to `O=c1n(Cc2c(F)cccc2F)cnn1-c1ccc(Oc2ccnc(NCC3CCC3)c2)cc1` [Example 342, 2-(4-((2-((cyclobutylmethyl)amino)pyridin-4-yl)oxy)phenyl)-4-(2,6-difluorobenzyl)-2,4-dihydro-3H-1,2,4-triazol-3-one], for which the IC50 under setting [1] lay in the range of 0.1 to 1 µM. Still for that read-out and setting: under `CC1(CO)CCN(c2cc(Oc3ccc(-n4ncn(Cc5c(F)cccc5F)c4=O)cc3)ccn2)C1` (stereo not shown) [Example 265, 4-(2,6-difluorobenzyl)-2-(4-((2-(3-(hydroxymethyl)-3-methylpyrrolidin-1-yl)pyridin-4-yl)oxy)phenyl)-2,4-dihydro-3H-1,2,4-triazol-3-one] stands 0.1 to 1 µM. In the case of `Cc1nc(C#N)cn1Cc1ccc(-n2ncn(Cc3c(F)cccc3F)c2=O)cc1` [Example 186, 1-(4-(4-(2,6-difluorobenzyl)-5-oxo-4,5-dihydro-1H-1,2,4-triazol-1-yl)benzyl)-2-methyl-1H-imidazole-4-carbonitrile], under setting [2], the IC50 is less than 0.1 µM. Regarding `COC1(C#N)CN(c2cc(Oc3ccc(-n4ncn(Cc5c(F)cccc5F)c4=O)cc3Cl)ccn2)C1` [Example 314, 1-(4-(2-chloro-4-(4-(2,6-difluorobenzyl)-5-oxo-4,5-dihydro-1H-1,2,4-triazol-1-yl)phenoxy)pyridin-2-yl)-3-methoxyazetidine-3-carbonitrile], the IC50 under setting [1] is less than 0.1 µM. Take `Cc1nc(C(=O)N2CCOCC2)sc1Oc1ccc(-n2ncn(Cc3c(F)cccc3F)c2=O)cc1F` [Example 22, 4-(2,6-difluorobenzyl)-2-(3-fluoro-4-((4-methyl-2-(morpholin-4-carbonyl)thiazol-5-yl)oxy)phenyl)-2,4-dihydro-3H-1,2,4-triazol-3-one]: the IC50 under setting [3] is less than 0.1 µM.
